Results on six compounds are retold here after the NIST ThermoML archive (doi:10.1016/j.jct.2014.02.012).

Broadly, the surface tension liquid-gas is the force per length acting along the surface. By viscosity is commonly meant the resistance of a fluid to flow. Usually mass density stands for the mass of a sample divided by its volume.

The conditions of data set [1]: 100 kPa, Liquid mixture 1, Wilhelmy plate method.
For data set [2] the following is noted: 298.15 K; for surface tension liquid-gas: Wilhelmy plate method; for viscosity / mass density: 101.33 kPa, Liquid; for viscosity: Capillary tube (Ostwald / Ubbelohde) method; for mass density: Vibrating tube method.

± gives the expanded uncertainty stated by the source.

On to `CCCCCCCCCCCC` [dodecane] + O, for which the values for the interfacial tension in data set [1] (298.15 K) and in data set [1] (348.15 K) were 52.2 ± 0.3 mN/m and 49.6 ± 0.3 mN/m, respectively.

`CCCCCCCCCCCCCC[P+](CCCCCC)(CCCCCC)CCCCCC.O=S(=O)([N-]S(=O)(=O)C(F)(F)F)C(F)(F)F` + CCCCCCCCCCCC: the interfacial tension was 0.9 ± 0.2 mN/m in data set [1] (298.15 K) and 0.6 ± 0.2 mN/m in data set [1] (348.15 K).

Regarding `CCCCCCCCCCCC` [dodecane], in data set [2], the surface tension liquid-gas was 24.9 ± 0.2 mN/m, the viscosity stood at 1.356 ± 0.029 mPa·s and the mass density amounted to 745.27 ± 0.24 kg/m3.

As to `O` [water], in data set [2], the surface tension liquid-gas is recorded as 72 ± 0.2 mN/m and the viscosity is 0.904 ± 0.019 mPa·s.

Consider `CCCCCCCCCCCCCC[P+](CCCCCC)(CCCCCC)CCCCCC.O=S(=O)([N-]S(=O)(=O)C(F)(F)F)C(F)(F)F` + O, for which the figures for the interfacial tension in data set [1] (298.15 K) and in data set [1] (348.15 K) were 27.1 ± 0.2 mN/m and 25.6 ± 0.2 mN/m, respectively.

As for `CCCCCCCCCCCCCC[P+](CCCCCC)(CCCCCC)CCCCCC.O=S(=O)([N-]S(=O)(=O)C(F)(F)F)C(F)(F)F`, in data set [2], the surface tension liquid-gas is on record as 30.9 ± 0.3 mN/m, the viscosity was 311.4 ± 11 mPa·s and the mass density is on record as 1065.5 ± 0.28 kg/m3.
